Source: patent US9056876B2, “Substituted 1H-pyrazolo[3′,4′,4,5]thieno[2,3-b]pyridin-3-amine analogs as positive allosteric modulators of the muscarinic acetylcholine receptor M4” (VANDERBILT UNIVERSITY, priority 2011, dated 2015)

Biological target: T1, mAChR M4 (UniProt P08173)
T1 construct: hM1 and hM4 cDNAs were purchased from Missouri S&T cDNA Resource
T1 sequence (P08173 1-479): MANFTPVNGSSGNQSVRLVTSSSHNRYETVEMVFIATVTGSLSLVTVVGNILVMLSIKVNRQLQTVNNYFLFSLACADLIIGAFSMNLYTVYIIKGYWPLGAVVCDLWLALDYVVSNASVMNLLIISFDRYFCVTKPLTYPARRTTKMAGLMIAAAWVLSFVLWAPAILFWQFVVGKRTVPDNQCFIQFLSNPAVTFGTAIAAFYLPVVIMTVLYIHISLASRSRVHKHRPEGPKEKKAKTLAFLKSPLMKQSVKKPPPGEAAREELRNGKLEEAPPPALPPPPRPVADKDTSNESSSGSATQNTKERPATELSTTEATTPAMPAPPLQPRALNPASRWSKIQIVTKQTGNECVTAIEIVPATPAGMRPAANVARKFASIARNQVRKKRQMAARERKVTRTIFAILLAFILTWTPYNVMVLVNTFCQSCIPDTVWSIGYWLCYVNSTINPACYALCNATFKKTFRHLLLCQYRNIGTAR
Test: mAChR M4 cell-based functional assay (calcium mobilization, Fluo-4, FDSS)
Settings: CHO-K1 cells; for pEC50: positive allosteric modulator activity, EC20 acetylcholine response; for EC50: positive allosteric modulator activity: concentration-dependent increase in the EC20 acetylcholine response, >10 μM estimated for low potency (no plateau)
How it was run: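 Compound responses (11-point, 1:3 series) were followed as calcium fluorescence ratio on FDSS in Gqi5-coupled M4 CHO-K1 cells (human or rat) loaded with Fluo-4. Acetylcholine followed at EC20 (144 s) then EC80 (230 s). EC50/Emax from four-parameter logistic fits of direct, EC20-potentiating or EC80-inhibiting effects.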

Row | Compound | pEC50 | EC50
1 | CC(=O)Nc1n[nH]c2c1sc1nc(C)cc(C)c12 [Compound 126, N-(6,8-dimethyl-1H-pyrazolo[3′,4′:4,5]thieno[2,3-b]pyridin-3-yl)acetamide] | <5.00 | > 10 µM
2 | COc1cccc(C(=O)Nc2n[nH]c3c2sc2nc(C)cc(C)c23)c1 [Compound 127, N-(6,8-dimethyl-1H-pyrazolo[3′,4′:4,5]thieno[2,3-b]pyridin-3-yl)-3-methoxybenzamide] | <5.00 | > 10 µM
3 | Cc1cc(C)c2c(n1)sc1c(NC(=O)c3ccc(F)cc3)n[nH]c12 [Compound 128, N-(6,8-dimethyl-1H-pyrazolo[3′,4′:4,5]thieno[2,3-b]pyridin-3-yl)-4-fluorobenzamide] | <5.00 | > 10 µM
4 | CCCCC(=O)Nc1n[nH]c2c1sc1nc(C)cc(C)c12 [Compound 129, N-(6,8-dimethyl-1H-pyrazolo[3′,4′:4,5]thieno[2,3-b]pyridin-3-yl)pentanamide] | <5.00 | > 10 µM
5 | Cc1cc(C)c2c(n1)sc1c(NC(=O)c3ccccc3)n[nH]c12 [Compound 130, N-(6,8-dimethyl-1H-pyrazolo[3′,4′:4,5]thieno[2,3-b]pyridin-3-yl)benzamide] | <5.00 | > 10 µM
6 | Cc1cc(C)c2c(n1)sc1c(NC3CCN(C(C)C)CC3)n[nH]c12 [Compound 131, N-(1-isopropylpiperidin-4-yl)-6,8-dimethyl-1H-pyrazolo[3′,4′:4,5]thieno[2,3-b]pyridin-3-amine] | <5.00 | > 10 µM
7 | Cc1cc(C)c2c(n1)sc1c(NC3CCCCC3)n[nH]c12 [Compound 132, N-cyclohexyl-6,8-dimethyl-1H-pyrazolo[3′,4′:4,5]thieno[2,3-b]pyridin-3-amine] | <5.00 | > 10 µM
8 | Cc1cc(C)c2c(n1)sc1c(NC3CCCCCC3)n[nH]c12 [Compound 133, N-cycloheptyl-6,8-dimethyl-1H-pyrazolo[3′,4′:4,5]thieno[2,3-b]pyridin-3-amine] | <5.00 | > 10 µM
9 | Cc1cc(C)c2c(n1)sc1c(NC3CCN(C)CC3)n[nH]c12 [Compound 134, 6,8-dimethyl-N-(1-methylpiperidin-4-yl)-1H-pyrazolo[3′,4′:4,5]thieno[2,3-b]pyridin-3-amine] | <5.00 | > 10 µM
10 | Cc1cc(C)c2c(n1)sc1c(NC3CCCN(C(=O)OC(C)(C)C)C3)n[nH]c12 (centres unmarked) [Compound 135, tert-butyl 3-((6,8-dimethyl-1H-pyrazolo[3′,4′:4,5]thieno[2,3-b]pyridin-3-yl)amino)piperidine-1-carboxylate] | <5.00 | > 10 µM
11 | Cc1cc(C)c2c(n1)sc1c(NC3CCCNC3)n[nH]c12 (centres unmarked) [Compound 136, 6,8-dimethyl-N-(piperidin-3-yl)-1H-pyrazolo[3′,4′:4,5]thieno[2,3-b]pyridin-3-amine] | <5.00 | > 10 µM
12 | Cc1cc(C)c2c(n1)sc1c(NC3CCC(C(F)(F)F)CC3)n[nH]c12 (centres unmarked) [Compound 137, 6,8-dimethyl-N-(4-(trifluoromethyl)cyclohexyl)-1H-pyrazolo[3′,4′:4,5]thieno[2,3-b]pyridin-3-amine] | <5.00 | > 10 µM
13 | Cc1cc(C)c2c(n1)sc1c(NC3CCC(N)CC3)n[nH]c12 (centres unmarked) [Compound 138, N1-(6,8-dimethyl-1H-pyrazolo[3′,4′:4,5]thieno[2,3-b]pyridin-3-yl)cyclohexane-1,4-diamine] | <5.00 | > 10 µM
14 | Cc1cc(C)c2c(n1)sc1c(NC3CCC(NC(=O)OC(C)(C)C)CC3)n[nH]c12 (centres unmarked) [Compound 139, tert-butyl (4-((6,8-dimethyl-1H-pyrazolo[3′,4′:4,5]thieno[2,3-b]pyridin-3-yl)amino)cyclohexyl)carbamate] | <5.00 | > 10 µM
15 | Cc1nc2sc3c(NCCC(C)C)n[nH]c3c2c(C)c1Cl [Compound 140, 7-chloro-N-isopentyl-6,8-dimethyl-1H-pyrazolo[3′,4′:4,5]thieno[2,3-b]pyridin-3-amine] | <5.00 | > 10 µM
16 | Cc1nc2sc3c(N)n[nH]c3c2c(C)c1Cl [Compound 141, 7-chloro-6,8-dimethyl-1H-pyrazolo[3′,4′:4,5]thieno[2,3-b]pyridin-3-amine] | <5.00 | > 10 µM
17 | Cc1nc2sc3c(NCC4CCCCC4)n[nH]c3c2c(C)c1Cl [Compound 142, 7-chloro-N-(cyclohexylmethyl)-6,8-dimethyl-1H-pyrazolo[3′,4′:4,5]thieno[2,3-b]pyridin-3-amine] | <5.00 | > 10 µM

Row | Compound | pEC50 | EC50
18 | COc1ccc(CNc2n[nH]c3c2sc2nc(C)c(Cl)c(C)c23)cc1 [Compound 143, 7-chloro-N-(4-methoxybenzyl)-6,8-dimethyl-1H-pyrazolo[3′,4′:4,5]thieno[2,3-b]pyridin-3-amine] | <5.00 | > 10 µM
19 | Cc1cc(C)cc(CNc2n[nH]c3c2sc2nc(C)c(Cl)c(C)c23)c1 [Compound 144, 7-chloro-N-(3,5-dimethylbenzyl)-6,8-dimethyl-1H-pyrazolo[3′,4′:4,5]thieno[2,3-b]pyridin-3-amine] | <5.00 | > 10 µM
20 | Cc1nc2sc3c(NCc4ccc(F)cc4)n[nH]c3c2c(C)c1Cl [Compound 145, 7-chloro-N-(4-fluorobenzyl)-6,8-dimethyl-1H-pyrazolo[3′,4′:4,5]thieno[2,3-b]pyridin-3-amine] | <5.00 | > 10 µM
21 | Cc1nc2sc3c(NCc4ccc(F)c(F)c4)n[nH]c3c2c(C)c1Cl [Compound 146, 7-chloro-N-(3,4-difluorobenzyl)-6,8-dimethyl-1H-pyrazolo[3′,4′:4,5]thieno[2,3-b]pyridin-3-amine] | <5.00 | > 10 µM
22 | Cc1nc2sc3c(NCc4ccccc4F)n[nH]c3c2c(C)c1Cl [Compound 147, 7-chloro-N-(2-fluorobenzyl)-6,8-dimethyl-1H-pyrazolo[3′,4′:4,5]thieno[2,3-b]pyridin-3-amine] | <5.00 | > 10 µM
23 | Cc1nc2sc3c(Nc4ccncc4)nn(C)c3c2c(C)c1Cl [Compound 148, 7-chloro-1,6,8-trimethyl-N-(pyridin-4-yl)-1H-pyrazolo[3′,4′:4,5]thieno[2,3-b]pyridin-3-amine] | <5.00 | > 10 µM
24 | Cc1ccc2c(n1)sc1c(N)n[nH]c12 [Compound 149, 6-methyl-1H-pyrazolo[3′,4′:4,5]thieno[2,3-b]pyridin-3-amine] | <5.00 | > 10 µM
25 | Cc1ccc2c(n1)sc1c(NC(=O)c3ccccc3)n[nH]c12 [Compound 150, N-(6-methyl-1H-pyrazolo[3′,4′:4,5]thieno[2,3-b]pyridin-3-yl)benzamide] | <5.00 | > 10 µM
26 | Cc1ccc2c(n1)sc1c(NC(=O)c3ccc(Br)cc3)n[nH]c12 [Compound 151, 4-bromo-N-(6-methyl-1H-pyrazolo[3′,4′:4,5]thieno[2,3-b]pyridin-3-yl)benzamide] | <5.00 | > 10 µM
27 | Cc1cc(C)c2c(n1)sc1c(NC(=O)c3ccccc3)nn(C)c12 [Compound 152, N-(1,6,8-trimethyl-1H-pyrazolo[3′,4′:4,5]thieno[2,3-b]pyridin-3-yl)benzamide] | <5.00 | > 10 µM
28 | Cc1cc(C)c2c(n1)sc1c(NC(=O)C3CCCCC3)nn(C)c12 [Compound 153, N-(1,6,8-trimethyl-1H-pyrazolo[3′,4′:4,5]thieno[2,3-b]pyridin-3-yl)cyclohexanecarboxamide] | <5.00 | > 10 µM
29 | Cc1cc(C)c2c(n1)sc1c(NC(=O)c3ccc(F)cc3)nn(C)c12 [Compound 154, 4-fluoro-N-(1,6,8-trimethyl-1H-pyrazolo[3′,4′:4,5]thieno[2,3-b]pyridin-3-yl)benzamide] | <5.00 | > 10 µM
30 | COc1ccc(Cn2nc(N(C)C)c3sc4nc(C)cc(C)c4c32)cc1 [Compound 155, 1-(4-methoxybenzyl)-N,N,6,8-tetramethyl-1H-pyrazolo[3′,4′:4,5]thieno[2,3-b]pyridin-3-amine] | <5.00 | > 10 µM
31 | Cc1ccc2c(n1)sc1c(NCCC(C)C)n[nH]c12 [Compound 156, N-isopentyl-6-methyl-1H-pyrazolo[3′,4′:4,5]thieno[2,3-b]pyridin-3-amine] | <5.00 | > 10 µM
32 | Cc1ccc2c(n1)sc1c(NC(=O)c3ccccc3)nn(C)c12 [Compound 157, N-(1,6-dimethyl-1H-pyrazolo[3′,4′:4,5]thieno[2,3-b]pyridin-3-yl)benzamide] | <5.00 | > 10 µM
33 | Cc1ccc2c(n1)sc1c(NC(=O)c3ccc(Br)cc3)nn(C)c12 [Compound 158, 4-bromo-N-(1,6-dimethyl-1H-pyrazolo[3′,4′:4,5]thieno[2,3-b]pyridin-3-yl)benzamide] | <5.00 | > 10 µM
34 | Cc1ccnc2sc3c(NC(=O)c4ccccc4)nn(C)c3c12 [Compound 159, N-(1,8-dimethyl-1H-pyrazolo[3′,4′:4,5]thieno[2,3-b]pyridin-3-yl)benzamide] | <5.00 | > 10 µM
